Reference: patent US12723023B2, “Ionizable cationic lipids for RNA delivery” (Arcturus Therapeutics, Inc., priority 2021, dated 2026)

How the values were obtained:
Mouse plasma stability = format: in vitro ADME, CD-1 mouse; conditions: 1 μM lipid
Method: Lipid stock solution was prepared by dissolution of the lipid in isopropanol at the concentration of 5 mg/mL. A requisite volume of the lipid-isopropanol solution was then diluted to 100 μM concentration at a total volume of 1.0 mL with in 50:50 (v/v) ethanol/water. Ten microliters of this 100 μM solution was spiked into 1.0 mL of mouse plasma (BioIVT, Cat. No.: MSE00PLNHUNN, CD-1 mouse, anticoagulant: sodium heparin, not filtered) that was pre-warmed to 37° C. and was stirred at 50 rpm with a magnetic stir bar. The starting concentration of lipids in plasma was thus 1 μM. At time points 0, 15, 30, 45, 60 and 120 min, 0.1 mL of the plasma was withdrawn from the reaction mixture and the protein was precipitated by adding 0.9 mL of ice-cold 4:1 (v/v) acetonitrile/methanol with 1 μg/mL of a selected internal standard lipid added. After filtration through a 0.45 micron 96-well filtering plate, the filtrates were analyzed by LC-MS (Thermo Fisher's Vanquish UHPLC-LTQ XL linear ion trap Mass Spectrometer); Waters XBridge BEH Shield RP18 2.5 micron (2.1×100 mm) column with its matching guard column. Mobile phase A was 0.1% formic acid in water, and mobile phase B was 0.1% formic acid in 1:1 (v/v) acetonitrile/methanol. Flow rate was 0.5 ml/min. Elution gradient was: Time 0-1 min: 10% B; 1-6 min: 10%-95% B; 6-8.5 min: 95% B; 8.5-9 min: 95%-10% B; 9-10 min: 10% B. Mass spectrometry was in positive scanning mode from 600-1100 m/z. The peak of the molecular ion of the lipids was integrated in the extracted ion chromatography (XIC) using Xcalibur software (Thermo Fisher). The relative peak area compared to T=0, after normalization by the peak area of the internal standard, was used as the percentage of the lipid remaining at each time point. T1/2 values were calculated using the first-order decay model.

[1] = In vivo biodegradability assay (lipid concentration in mouse liver by LC-MS); set-up: species or system mice; conditions: BLOQ: below level of quantification; for In vivo degradability (ng tissue) at 48 h 0.1 mpk: Table 1, 0.1 mpk; for In vivo degradability (ng/tissue) at 48 h 0.1 mpk: Table 2, 0.1 mpk
Method: In vivo biodegradability assay was performed to assess the biodegradability of lipids in the LNP. Briefly, mice were injected with either 0.1 or 0.03 mg/Kg dose and after 24 or 48 hours mice livers were collected. To measure the concentration of lipids in the mouse liver, liver samples were homogenized in appropriate buffer in 1-10 dilution and mixed with the same amount of stabilized plasma. The samples were then mixed with organic solvents spiked with internal standard to precipitate proteins. After centrifugation, supernatant was diluted further with organic solvent before sample analysis by LC-MS. In LC-MS analysis, positive electrospray ionization was used, and multiple reaction monitoring (MRM) parameters were set up to specifically target the lipid analyte and internal standard. Calibration standards were prepared in stabilized plasma and mixed with same amount of homogenization buffer before protein precipitation. Quality control samples with known amounts of lipid was prepared in blank liver homogenate to monitor the precision and accuracy of the assay.

| SMILES | Plasma half life % remaining after 2 h (Mouse plasma stability; Table 1, 37° C.) [%] | Plasma half life % remaining after 2 h (Mouse plasma stability; Table 2, 37° C.) [%] | In vivo degradability (ng/tissue) at 48 h 0.03 mpk ([1]; Table 1, 0.03 mpk) | In vivo degradability (ng tissue) at 48 h 0.1 mpk [1] | In vivo degradability (ng/tissue) at 48 h 0.03 mpk ([1]; Table 2, 0.03 mpk) | In vivo degradability (ng/tissue) at 48 h 0.1 mpk [1] |
| --- | --- | --- | --- | --- | --- | --- |
| CCCCCCCCC(=O)OCC(COC(=O)CCCCCCCC)OC(=O)CCC(CCC(=O)OC(COC(=O)CCCCCCCC)COC(=O)CCCCCCCC)OC(=O)CCCN(C)C [LIPID 5, bis(1,3-bis(Nonanoyloxy)propan-2-yl) 4-((4-(dimethylamino)butanoyl)oxy)heptanedioate] | 40 | 40 | BLOQ | BLOQ | BLOQ | BLOQ |
| CN(C)CCCSC(=O)N(CCCC(=O)OC(COC(=O)C1CC2CCCCC2C1)COC(=O)C1CC2CCCCC2C1)CCCC(=O)OC(COC(=O)C1CC2CCCCC2C1)COC(=O)C1CC2CCCCC2C1 (centres unmarked) [LIPID 28] |  | 100 |  |  | BLOQ | BLOQ |
| CCCCCCCCC(=O)OCC(COC(=O)CCCCCCCC)COC(=O)CCN(CCC(=O)OCC(COC(=O)CCCCCCCC)COC(=O)CCCCCCCC)C(=O)SCCN(C)C [LIPID 26, ((3,3′-((((2-(Dimethylamino)ethyl)thio)carbonyl)azanediyl)bis(propanoyl))bis(oxy))bis(methylene))bis(propane-2,1,3-triyl) tetranonanoate] |  | 100 |  |  | BLOQ | BLOQ |
| CN(C)CCCSC(=O)N(CCCCCC(=O)OC(COC(=O)CCC1CCCCC1)COC(=O)CCC1CCCCC1)CCCCCC(=O)OC(COC(=O)CCC1CCCCC1)COC(=O)CCC1CCCCC1 [LIPID 12, ((6,6′-((((3 (dimethylamino)propyl)thio)carbonyl)azanediyl)bis(hexanoyl))bis(oxy))bis(propane-2,1,3-triyl) tetrakis(3-cyclohexylpropanoate)] | 57 | 57 | BLOQ | BLOQ | BLOQ | BLOQ |
| CCCCCCCCC(=O)OCC(COC(=O)CCCCCCCC)COC(=O)CCN(CCC(=O)OCC(COC(=O)CCCCCCCC)COC(=O)CCCCCCCC)C(=O)SCCCN(C)C [LIPID 14] | 116 | 100 | <340 ng/tissue | <340 ng tissue | <340 ng/tissue | <340 ng/tissue |
| CCCCCCCCC(=O)OCC(COC(=O)CCCCCCCC)COC(=O)CCCN(CCCC(=O)OCC(COC(=O)CCCCCCCC)COC(=O)CCCCCCCC)C(=O)SCCCN(C)C [LIPID 25, ((4,4′-((((3-(Dimethylamino)propyl)thio)carbonyl)azanediyl)bis(butanoyl))bis(oxy))bis(methylene))bis(propane-2,1,3-triyl) tetranonanoate] |  | 100 |  |  | BLOQ | BLOQ |
| CCCCCCCCC(=O)OCC(COC(=O)CCCCCCCC)OC(=O)CCCC(CCCC(=O)OC(COC(=O)CCCCCCCC)COC(=O)CCCCCCCC)OC(=O)CCCN(C)C.Cl [LIPID 3, bis(1,3-bis(Nonanoyloxy)propan-2-yl) 5-((4-(dimethylamino)butanoyl)oxy)nonanedioate HCl Salt] | 15 | 15 | BLOQ | BLOQ | BLOQ | BLOQ |
| CC1CCC(CC(=O)OCC(C)(COC(=O)CCN(CCC(=O)OCC(C)(COC(=O)CC2CCC(C)CC2)COC(=O)CC2CCC(C)CC2)C(=O)SCCCN(C)C)COC(=O)CC2CCC(C)CC2)CC1 (centres unmarked) [LIPID 21] |  | 100 |  |  | <340 ng/tissue | <340 ng/tissue |
| CN(C)CCCSC(=O)N(CCCC(=O)OC(COC(=O)CCCC1CCCCC1)COC(=O)CCCC1CCCCC1)CCCC(=O)OC(COC(=O)CCCC1CCCCC1)COC(=O)CCCC1CCCCC1 [LIPID 11, ((4,4′-((((3-(Dimethylamino)propyl)thio)carbonyl)azanediyl)bis(butanoyl))bis(oxy))bis(propane-2,1,3-triyl) tetrakis(4-cyclohexylbutanoate)] | 40 | 40 | BLOQ | BLOQ | BLOQ | BLOQ |
| CCCCCCC(C)C(=O)OCC(COC(=O)C(C)CCCCCC)OC(=O)CCCN(CCCC(=O)OC(COC(=O)C(C)CCCCCC)COC(=O)C(C)CCCCCC)C(=O)SCCCN(C)C (centres unmarked) [LIPID 18, ((4,4′-((((3-(Dimethylamino)propyl)thio)carbonyl)-azanediyl)bis(butanoyl))bis(oxy))bis(propane-2,1,3-triyl) tetrakis(2-methyloctanoate)] | 100 | 100 | <340 ng/tissue | 639 ng tissue | <340 ng/tissue | 639 ng/tissue |
| CCCCCCCCC(=O)OCC(COC(=O)CCCCCCCC)OC(=O)CCN(CCC(=O)OC(COC(=O)CCCCCCCC)COC(=O)CCCCCCCC)C(=O)SCCCN(C)C [LIPID 13] | 74 | 74 | <340 ng/tissue | <340 ng tissue | <340 ng/tissue | <340 ng/tissue |
| CCCCCCCCC(=O)OCC(COC(=O)CCCCCCCC)OC(=O)CN(CC(=O)OC(COC(=O)CCCCCCCC)COC(=O)CCCCCCCC)C(=O)SCCCN(C)C [LIPID 8, ((2,2′-((((3-(Dimethylamino)propyl)thio)carbonyl)azanediyl)bis(acetyl))bis(oxy))bis(propane-2,1,3-triyl) tetranonanoate] | 81 | 81 | BLOQ | BLOQ | BLOQ | BLOQ |
| CCCCCC(C)(C)C(=O)OCC(COC(=O)C(C)(C)CCCCC)OC(=O)CCCN(CCCC(=O)OC(COC(=O)C(C)(C)CCCCC)COC(=O)C(C)(C)CCCCC)C(=O)SCCCN(C)C [LIPID 19, ((4,4′-((((3-(Dimethylamino)propyl)thio)carbonyl)-azanediyl)bis(butanoyl))bis(oxy))bis(propane-2,1,3-triyl) tetrakis(2,2-dimethylheptanoate)] |  | 100 | <340 ng/tissue | 847 ng tissue | <340 ng/tissue | 847 ng/tissue |
| CCCCCCCC(=O)OCC(C)(COC(=O)CCCCCCC)COC(=O)CCN(CCC(=O)OCC(C)(COC(=O)CCCCCCC)COC(=O)CCCCCCC)C(=O)SCCCN(C)C [LIPID 24] |  | 100 |  |  | BLOQ | BLOQ |
